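Five concentrations, 48 hours, 96-well plates. Here, GI50 denotes the concentration required for 50% inhibition of growth. TGI marks complete inhibition of growth.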
Legend:
Assay in all cases: NCI anticancer screen, dose series, 48 h
[1] = tested on: BT-549 breast
[2] = tested on: CCRF-CEM leukemia
[3] = tested on: COLO 205 colon
[4] = tested on: LOX IMVI melanoma
[5] = tested on: RPMI-8226 leukemia
[6] = tested on: SF-295 CNS
[7] = tested on: HOP-62 NSCLC

Row | Structure (SMILES) | GI50 [1] | TGI [1] | GI50 [2] | TGI [2] | GI50 [3] | TGI [3] | GI50 [4] | TGI [4] | GI50 [5] | TGI [5] | GI50 [6] | TGI [6] | GI50 [7] | TGI [7]
1 | C=CCN(CC=C)Cc1c[nH]c2ccccc12 | 2.31 µM | 8.33 µM | 56.9 µM | > 100 µM | 18.4 µM | > 100 µM | 27.4 µM | > 100 µM | 17.8 µM | > 100 µM | 21 µM | > 100 µM | – | –
2 | CC(=O)O[C@H]1C[C@@H]2[C@@]3(C)CC[C@H]4C[C@@]4(C)[C@@H]3CC[C@@]2(C)C2=CCC3=C(COC3=O)[C@]21C | – | – | 33.6 µM | > 100 µM | 34 µM | > 100 µM | 17.6 µM | 36.5 µM | 17.9 µM | 50.2 µM | 19.6 µM | 40.9 µM | 17.5 µM | 36.4 µM
3 | CCCCCCCCCCCCOC1C(C(COC2OC(C(O)CO)C3OC(C)(C)OC23)OC(=O)Nc2ccccc2)OC2OC(C)(C)OC21 (configuration not stated) | 10.5 µM | 23.8 µM | – | 6.66 µM | 5.51 µM | 16.6 µM | 7.82 µM | 20.9 µM | 3.93 µM | 15.2 µM | 5.47 µM | 17.7 µM | 9.7 µM | 22.2 µM
4 | O=[N+]([O-])c1ccc(/C=C(/c2ccc([N+](=O)[O-])o2)S(=O)(=O)c2ccccc2)cc1 | – | > 100 µM | – | – | – | > 100 µM | – | – | – | 31.4 µM | – | > 100 µM | – | > 100 µM
5 | COc1ccc(-c2c(Nc3ccccn3)nc3c(C4=CCCCC4)c(-c4ccccc4)[nH]n3c2=O)cc1 | 1.88 µM | 17.6 µM | 1.22 µM | 6.58 µM | 2.34 µM | > 100 µM | 1.8 µM | > 100 µM | 1.43 µM | 5.66 µM | 2.48 µM | 14 µM | 3.73 µM | 22.9 µM
6 | CCOC(=O)C#Cc1c(C(=O)OCC)nnn1[C@@H]1O[C@H](COC)[C@@H](OC)[C@H]1OC | 13.1 µM | 26 µM | 1.87 µM | 4.93 µM | 1.94 µM | 3.83 µM | 1.16 µM | 2.58 µM | 4.16 µM | 17.2 µM | > 100 µM | > 100 µM | 25.7 µM | 63.1 µM
7 | CN(C)CCCC1(c2ccc(F)cc2)OCc2cc(-c3csc4ccccc34)ccc21 (configuration not stated) | – | – | – | – | 1.73 µM | 3.79 µM | 1.65 µM | 3.16 µM | – | – | 1.64 µM | 3.04 µM | 1.57 µM | 3.31 µM
8 | N#C[Se]CCN1C(=O)c2ccccc2C1=O | 1.66 µM | 3.53 µM | 0.934 µM | 30.3 µM | 3.07 µM | 9.05 µM | 1.8 µM | 4.15 µM | 3.35 µM | 18.5 µM | 1.65 µM | 3.7 µM | 2.17 µM | 6.45 µM
9 | O=C(/C=C(\[O-])c1ccccc1)CCCCCCC(=O)/C=C(\[O-])c1ccccc1.O=C(/C=C(\[O-])c1ccccc1)CCCCCCC(=O)/C=C(\[O-])c1ccccc1.O=C(/C=C(\[O-])c1ccccc1)CCCCCCC(=O)/C=C(\[O-])c1ccccc1.[Y+3].[Y+3] | – | – | – | – | > 50 µM | > 50 µM | > 50 µM | > 50 µM | 44.8 µM | > 50 µM | > 50 µM | > 50 µM | 18.8 µM | > 50 µM

From PubChem BioAssay (NCI)
